Results: ChEMBL document CHEMBL1201862, “PubChem BioAssay data set” (2004)
Activity calls are given as the source filed them.

Tests used:
[1] = target: E3 ubiquitin-protein ligase Mdm2 (Homo sapiens, UniProt Q00987); assay: MDM2-luc reporter signal enhancers, multi-concentration potency testing, MDM2 ubiquitin-protein ligase inhibitor program, whole-cell format, luminescence detection, 384-well microplate (AID 1394); format: functional;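 further: MDM2 E3 inhibitors raise luminescence so EC50 is for signal enhancement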
[2] = target: T1, Microphthalmia-associated transcription factor (Homo sapiens, UniProt O75030); assay: reducers of TRPM1 reporter luminescence, concentration series – cell-based, SK-MEL-5, cherry-picked, set 3, MITF inhibitor project, dose response (AID 493073); format: functional;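 further: SK-MEL-5 melanoma cells with luciferase driven by the MITF target TRPM1 promoter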
T1 sequence (O75030 whole entry): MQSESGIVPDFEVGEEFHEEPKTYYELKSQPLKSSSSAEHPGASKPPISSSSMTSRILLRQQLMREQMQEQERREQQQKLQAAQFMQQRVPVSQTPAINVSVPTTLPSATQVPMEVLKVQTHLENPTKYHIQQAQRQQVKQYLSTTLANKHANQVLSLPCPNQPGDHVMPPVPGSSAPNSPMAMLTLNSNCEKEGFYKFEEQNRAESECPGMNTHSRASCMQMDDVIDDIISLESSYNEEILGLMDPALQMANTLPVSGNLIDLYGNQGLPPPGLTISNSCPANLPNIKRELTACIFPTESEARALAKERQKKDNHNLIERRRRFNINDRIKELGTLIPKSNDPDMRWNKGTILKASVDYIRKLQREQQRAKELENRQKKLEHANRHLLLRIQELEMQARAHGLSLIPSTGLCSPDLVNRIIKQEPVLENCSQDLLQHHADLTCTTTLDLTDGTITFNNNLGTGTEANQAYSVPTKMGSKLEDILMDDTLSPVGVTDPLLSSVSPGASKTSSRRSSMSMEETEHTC

[3] = target: T2, Replicative DNA helicase DnaB (Mycobacterium tuberculosis, UniProt P9WMR3); assay: DnaB intein splicing inhibitors, dose response, biochemical, cell-free fluorescence (AID 449749); format: functional
T2 sequence (P9WMR3 whole entry): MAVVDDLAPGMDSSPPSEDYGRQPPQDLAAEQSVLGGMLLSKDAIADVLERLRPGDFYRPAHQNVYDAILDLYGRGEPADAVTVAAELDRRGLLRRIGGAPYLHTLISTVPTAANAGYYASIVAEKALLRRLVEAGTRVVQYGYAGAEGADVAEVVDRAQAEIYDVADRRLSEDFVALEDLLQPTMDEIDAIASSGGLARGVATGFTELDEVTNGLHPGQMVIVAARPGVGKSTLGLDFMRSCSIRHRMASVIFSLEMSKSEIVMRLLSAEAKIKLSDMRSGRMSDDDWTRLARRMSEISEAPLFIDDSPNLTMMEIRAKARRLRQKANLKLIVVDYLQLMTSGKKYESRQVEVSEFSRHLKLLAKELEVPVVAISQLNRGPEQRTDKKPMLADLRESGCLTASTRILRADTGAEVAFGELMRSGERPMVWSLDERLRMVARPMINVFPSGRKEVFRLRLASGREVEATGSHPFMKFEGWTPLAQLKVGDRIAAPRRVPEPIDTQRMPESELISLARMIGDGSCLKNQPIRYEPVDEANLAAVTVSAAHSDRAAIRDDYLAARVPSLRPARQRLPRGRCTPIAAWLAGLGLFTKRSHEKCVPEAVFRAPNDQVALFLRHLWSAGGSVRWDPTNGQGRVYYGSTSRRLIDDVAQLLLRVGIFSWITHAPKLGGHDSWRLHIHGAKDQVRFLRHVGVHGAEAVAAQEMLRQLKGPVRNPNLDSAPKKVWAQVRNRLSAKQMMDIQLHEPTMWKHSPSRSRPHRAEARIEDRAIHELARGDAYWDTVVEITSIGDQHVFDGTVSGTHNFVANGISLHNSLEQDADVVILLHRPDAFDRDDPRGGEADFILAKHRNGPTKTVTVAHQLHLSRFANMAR

Large T antigen = Large T antigen (Simian virus 40, UniProt P03070); format: functional, Betapolyomavirus macacae;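 further: Confirmatory-stage PubChem screen for compounds that inhibit SV40 T antigen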
Heat shock protein HSP90 = Heat shock protein HSP90 (Homo sapiens, UniProt P07900+P08238); assay: Hsp90 blockade concentration-response – dose response (AID 712); format: functional
[4] = viability loss in THP-1 monocytes – THP-1 cells, cytotoxicity control for Vif-APOBEC3G degradation inhibitor project, dose response (AID 1117359); format: functional; conditions: THP-1
Protein RecA = target: T3, Protein RecA (Mycobacterium tuberculosis, UniProt P9WHJ3); assay: Fluorescence Cell-Free Homogeneous Dose Retest to Identify Inhibitors of RecA-Intein Splicing Activity. [Related pubchem assays (depositor defined):AID2097, AID2223, AID489010, AID492950]; format: functional
T3 sequence (P9WHJ3 whole entry): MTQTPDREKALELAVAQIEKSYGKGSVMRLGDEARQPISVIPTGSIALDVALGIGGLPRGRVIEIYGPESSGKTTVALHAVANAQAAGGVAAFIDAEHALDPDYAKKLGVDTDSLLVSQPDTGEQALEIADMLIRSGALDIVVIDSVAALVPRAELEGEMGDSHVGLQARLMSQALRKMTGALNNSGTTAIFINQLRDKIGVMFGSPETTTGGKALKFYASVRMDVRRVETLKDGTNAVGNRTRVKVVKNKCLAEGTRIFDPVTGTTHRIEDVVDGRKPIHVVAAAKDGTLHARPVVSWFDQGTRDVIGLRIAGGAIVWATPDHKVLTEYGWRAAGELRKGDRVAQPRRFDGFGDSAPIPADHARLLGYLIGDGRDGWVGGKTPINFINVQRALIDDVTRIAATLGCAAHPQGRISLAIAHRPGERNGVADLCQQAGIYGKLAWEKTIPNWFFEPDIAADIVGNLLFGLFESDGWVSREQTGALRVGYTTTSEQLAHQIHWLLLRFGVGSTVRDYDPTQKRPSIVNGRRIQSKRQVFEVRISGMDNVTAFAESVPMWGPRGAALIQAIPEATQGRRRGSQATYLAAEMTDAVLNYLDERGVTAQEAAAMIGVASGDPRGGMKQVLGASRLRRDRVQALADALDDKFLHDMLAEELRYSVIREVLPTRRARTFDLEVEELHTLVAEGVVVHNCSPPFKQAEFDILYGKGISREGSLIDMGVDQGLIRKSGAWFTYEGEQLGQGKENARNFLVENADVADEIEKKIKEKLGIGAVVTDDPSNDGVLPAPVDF

Protein Tat = target: T4, Protein Tat (Human immunodeficiency virus type 1 group M subtype B (isolate HXB2)(HIV-1), UniProt P04608); format: functional;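 further: tat binding to TAR RNA read out by fluorescence polarization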
T4 sequence (P04608 whole entry): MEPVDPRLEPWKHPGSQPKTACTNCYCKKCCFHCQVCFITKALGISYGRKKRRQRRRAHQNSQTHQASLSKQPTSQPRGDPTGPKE

[5] = viability loss in Vero cells – cytotoxicity control for Vif-APOBEC3G degradation inhibitor project, dose response (AID 1117358); format: functional; conditions: Vero
[6] = target: T5, Calpain-2 catalytic subunit (Sus scrofa, UniProt P43367); assay: m-calpain protease blockers, concentration series – biochemical, fluorogenic peptide substrate, dose response (AID 1420); format: functional
T5 sequence (P43367 whole entry): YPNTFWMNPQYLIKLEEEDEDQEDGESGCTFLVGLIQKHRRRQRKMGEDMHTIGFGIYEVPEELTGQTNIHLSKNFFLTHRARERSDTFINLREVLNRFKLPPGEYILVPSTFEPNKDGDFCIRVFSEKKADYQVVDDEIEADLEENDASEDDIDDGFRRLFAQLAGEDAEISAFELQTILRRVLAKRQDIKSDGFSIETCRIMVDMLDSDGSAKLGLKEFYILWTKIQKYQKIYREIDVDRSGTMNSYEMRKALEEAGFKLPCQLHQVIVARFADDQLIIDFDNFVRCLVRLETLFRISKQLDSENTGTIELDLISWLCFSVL

[7] = target: T6, Mannose-6-phosphate isomerase (Homo sapiens, UniProt P34949); assay: MPI enzyme activity inhibition – biochemical, fluorescence intensity, coupled assay, primary screen (AID 1209)
T6 sequence (P34949 whole entry): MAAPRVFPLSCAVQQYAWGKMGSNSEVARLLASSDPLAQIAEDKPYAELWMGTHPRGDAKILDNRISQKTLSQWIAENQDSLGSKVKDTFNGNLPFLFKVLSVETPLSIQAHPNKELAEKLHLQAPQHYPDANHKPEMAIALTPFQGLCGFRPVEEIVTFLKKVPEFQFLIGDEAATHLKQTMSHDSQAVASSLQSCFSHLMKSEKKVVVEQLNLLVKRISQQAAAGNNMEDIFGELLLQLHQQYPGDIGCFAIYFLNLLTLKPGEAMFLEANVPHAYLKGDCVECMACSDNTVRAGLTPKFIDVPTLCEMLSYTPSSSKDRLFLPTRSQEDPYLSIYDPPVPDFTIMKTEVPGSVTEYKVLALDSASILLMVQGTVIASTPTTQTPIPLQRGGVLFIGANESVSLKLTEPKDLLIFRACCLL

[8] = target: Dual specificity tyrosine-phosphorylation-regulated kinase 1A (Rattus norvegicus, UniProt Q63470); format: biochemical, Homo sapiens
[9] = target: T7, Carboxy-terminal domain RNA polymerase II polypeptide A small phosphatase 1 (Homo sapiens, UniProt Q9GZU7); assay: CTDSP1 inhibitors, concentration-response, biochemical, absorbance readout, ultra-high-throughput screen actives (AID 540297); format: functional
T7 sequence (Q9GZU7 whole entry): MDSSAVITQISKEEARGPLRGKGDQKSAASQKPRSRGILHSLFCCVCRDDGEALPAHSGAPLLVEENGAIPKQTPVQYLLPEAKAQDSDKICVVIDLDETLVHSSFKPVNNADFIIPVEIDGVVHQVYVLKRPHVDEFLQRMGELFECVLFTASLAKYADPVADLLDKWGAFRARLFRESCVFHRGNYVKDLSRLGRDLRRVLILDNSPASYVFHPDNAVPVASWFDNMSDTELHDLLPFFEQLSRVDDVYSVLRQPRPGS

Genome polyprotein = Genome polyprotein (Hepatitis C virus, UniProt Q2Q167); assay: disruption of hepatitis C core self-association – biochemical, TR-FRET, dose response (AID 2159); set-up: species or system Hepacivirus hominis;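 further: blocks dimerization of HCV core protein measured by TR-FRET between tagged core106 pairs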
Estrogen receptor = target: T8, Estrogen receptor (Homo sapiens, UniProt P03372);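 further: potency for inhibiting coactivator peptide recruitment to the receptor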
T8 sequence (P03372 whole entry): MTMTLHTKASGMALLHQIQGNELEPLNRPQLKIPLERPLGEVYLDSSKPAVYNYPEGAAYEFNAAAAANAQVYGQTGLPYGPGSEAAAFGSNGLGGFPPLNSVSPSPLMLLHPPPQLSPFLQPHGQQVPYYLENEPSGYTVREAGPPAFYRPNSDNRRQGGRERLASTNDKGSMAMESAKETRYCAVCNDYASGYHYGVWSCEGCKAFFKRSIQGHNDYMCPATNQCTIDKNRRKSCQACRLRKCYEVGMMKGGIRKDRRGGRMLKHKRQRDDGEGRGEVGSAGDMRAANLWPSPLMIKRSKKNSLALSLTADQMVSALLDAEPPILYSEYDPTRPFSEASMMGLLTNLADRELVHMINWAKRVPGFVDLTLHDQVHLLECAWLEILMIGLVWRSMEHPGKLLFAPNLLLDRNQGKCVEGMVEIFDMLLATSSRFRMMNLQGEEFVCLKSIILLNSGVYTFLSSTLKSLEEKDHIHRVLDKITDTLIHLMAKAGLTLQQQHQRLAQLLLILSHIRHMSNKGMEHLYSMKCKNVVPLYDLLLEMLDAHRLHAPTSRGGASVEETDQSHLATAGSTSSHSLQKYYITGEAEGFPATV

[10] = target: Solute carrier family 12 member 2/member 5 (Homo sapiens, UniProt P55011+Q9H2X9); assay: KCC2 and NKCC1 inhibition by rubidium flux, cell-based, NKCC1 counter-screen (AID 1734); format: functional, HEK293
NS3 = NS3 (Hepatitis C virus, UniProt A3EZJ3); assay: PubChem AID 2173; set-up: species or system Hepacivirus hominis
[11] = target: T6, Mannose-6-phosphate isomerase; assay: MPI inhibition at elevated mannose 6-phosphate – biochemical, fluorescence intensity, high mannose 6-phosphate, primary screen (AID 1220)
[12] = target: DNA dC->dU-editing enzyme APOBEC-3G (Homo sapiens, UniProt Q9HC16); assay: Dose Response confirmation of small molecule APOBEC3G DNA Deaminase Inhibitors via a fluorescence-based single-stranded DNA deaminase assay. [Related pubchem assays (depositor defined):AID493012, AID493028]; format: functional
[13] = fluconazole-exposed Candida albicans growth modulators – fluorescence, retest, confirmation (AID 2467); format: functional, cell-based
[14] = NIH-3T3 fibroblast cytotoxicity, dose response, cytotoxicity control, cell-based, fluorescence, Alamar Blue, secondary assay (AID 2327); format: functional;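 further: NIH-3T3 mouse fibroblasts cultured with fluconazole at 8 µg/mL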

Chain of E3 ubiquitin-protein ligase Mdm2 (Q00987 whole entry): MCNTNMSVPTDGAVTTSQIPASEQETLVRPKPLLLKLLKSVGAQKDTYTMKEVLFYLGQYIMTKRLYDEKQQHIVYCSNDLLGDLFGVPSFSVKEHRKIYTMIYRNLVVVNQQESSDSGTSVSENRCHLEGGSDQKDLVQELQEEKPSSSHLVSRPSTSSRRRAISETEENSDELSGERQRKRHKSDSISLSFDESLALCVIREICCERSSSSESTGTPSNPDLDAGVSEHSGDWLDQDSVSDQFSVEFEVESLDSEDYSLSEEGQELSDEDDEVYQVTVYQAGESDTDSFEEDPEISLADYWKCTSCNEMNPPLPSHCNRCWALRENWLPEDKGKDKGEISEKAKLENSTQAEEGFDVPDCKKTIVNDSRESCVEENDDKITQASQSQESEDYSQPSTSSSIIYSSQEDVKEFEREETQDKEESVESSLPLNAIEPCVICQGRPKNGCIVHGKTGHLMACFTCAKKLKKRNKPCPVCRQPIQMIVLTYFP
Chain of Large T antigen (P03070 whole entry): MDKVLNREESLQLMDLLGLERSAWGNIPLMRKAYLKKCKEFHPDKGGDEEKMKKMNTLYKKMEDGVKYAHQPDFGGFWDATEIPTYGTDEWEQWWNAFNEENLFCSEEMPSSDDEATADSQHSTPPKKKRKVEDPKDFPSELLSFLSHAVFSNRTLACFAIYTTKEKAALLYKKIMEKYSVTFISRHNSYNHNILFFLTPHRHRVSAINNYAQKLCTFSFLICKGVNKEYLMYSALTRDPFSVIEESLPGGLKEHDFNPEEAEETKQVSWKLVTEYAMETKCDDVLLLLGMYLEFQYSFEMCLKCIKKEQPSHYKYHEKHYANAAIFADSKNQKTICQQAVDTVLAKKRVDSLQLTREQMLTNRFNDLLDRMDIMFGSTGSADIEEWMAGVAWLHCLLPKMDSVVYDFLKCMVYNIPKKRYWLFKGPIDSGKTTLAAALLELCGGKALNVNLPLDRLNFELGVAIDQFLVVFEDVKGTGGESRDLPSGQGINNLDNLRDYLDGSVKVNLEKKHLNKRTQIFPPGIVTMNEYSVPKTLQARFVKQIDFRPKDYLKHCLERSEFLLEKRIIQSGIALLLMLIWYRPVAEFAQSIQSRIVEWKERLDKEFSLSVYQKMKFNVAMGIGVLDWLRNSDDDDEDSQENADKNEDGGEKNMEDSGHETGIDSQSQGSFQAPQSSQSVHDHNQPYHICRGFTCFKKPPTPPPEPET
Chain of Genome polyprotein (Q2Q167 whole entry): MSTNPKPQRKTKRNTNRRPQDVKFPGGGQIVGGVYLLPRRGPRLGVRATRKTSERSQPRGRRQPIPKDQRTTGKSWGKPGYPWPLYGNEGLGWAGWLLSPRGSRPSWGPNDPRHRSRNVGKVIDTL
Chain of DNA dC->dU-editing enzyme APOBEC-3G (Q9HC16 whole entry): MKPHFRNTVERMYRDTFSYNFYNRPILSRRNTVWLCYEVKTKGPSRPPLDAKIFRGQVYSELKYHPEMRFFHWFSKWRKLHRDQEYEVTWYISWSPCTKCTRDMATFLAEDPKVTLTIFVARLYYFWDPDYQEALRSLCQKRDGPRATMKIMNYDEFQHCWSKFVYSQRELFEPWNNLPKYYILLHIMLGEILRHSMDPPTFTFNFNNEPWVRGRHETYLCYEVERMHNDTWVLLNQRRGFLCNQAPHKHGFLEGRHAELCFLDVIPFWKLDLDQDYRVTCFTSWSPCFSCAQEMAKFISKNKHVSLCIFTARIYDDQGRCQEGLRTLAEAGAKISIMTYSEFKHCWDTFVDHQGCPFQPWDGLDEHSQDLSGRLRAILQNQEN
Chain of NS3 (A3EZJ3 whole entry): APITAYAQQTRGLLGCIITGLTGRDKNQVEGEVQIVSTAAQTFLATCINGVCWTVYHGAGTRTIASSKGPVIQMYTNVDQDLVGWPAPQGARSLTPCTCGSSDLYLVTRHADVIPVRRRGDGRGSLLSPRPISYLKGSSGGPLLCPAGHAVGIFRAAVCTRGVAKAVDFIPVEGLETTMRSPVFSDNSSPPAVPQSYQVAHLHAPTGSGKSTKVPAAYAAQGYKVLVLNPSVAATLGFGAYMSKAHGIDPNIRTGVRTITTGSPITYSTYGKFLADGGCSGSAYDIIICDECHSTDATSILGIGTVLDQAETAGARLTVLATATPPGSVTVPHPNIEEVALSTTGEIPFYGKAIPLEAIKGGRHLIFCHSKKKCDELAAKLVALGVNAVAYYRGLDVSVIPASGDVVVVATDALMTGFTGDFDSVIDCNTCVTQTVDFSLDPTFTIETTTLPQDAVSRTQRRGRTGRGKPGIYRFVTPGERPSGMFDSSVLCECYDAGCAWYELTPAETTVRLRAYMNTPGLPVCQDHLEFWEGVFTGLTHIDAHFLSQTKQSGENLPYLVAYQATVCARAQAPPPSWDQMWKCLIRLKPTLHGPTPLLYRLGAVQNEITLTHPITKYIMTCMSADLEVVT

Compound: CC(C)CC(=O)/C=C/n1c(=S)oc2ccccc21
- EC50 [1]: 1.2 µM (active)
- AC50 [2]: 10.5 µM (active)

Compound: Oc1ccc(/N=C/c2ccc(O)c(O)c2)cc1
- AC50 [3]: 10.5 µM (inconclusive)
- IC50 (Large T antigen): 9.16 µM (active)
- IC50 (Heat shock protein HSP90): 20.6061 µM
- CC50 [4]: 22.2 µM (active)
- EC50 (Protein RecA): > 380 µM (inconclusive)
- IC50 (Protein Tat): 15 µM (inconclusive)

Compound: CCOc1cc(CNc2ccc(O)cc2)ccc1OCc1ccc(Cl)cc1Cl
- AC50 [3]: > 380 µM (inconclusive)
- CC50 [5]: > 40 µM (active)
- IC50 [6]: 7.31 µM (not active)
- CC50 [4]: 13.9 µM (active)
- EC50 (Protein RecA): 331 µM (active)
- IC50 [7]: > 50 µM (not active)
- IC50 (Protein Tat): 34 µM (inconclusive)

Compound: CCC1(CC)NC(=O)N(CC(=O)Nc2sc3c(c2C(N)=O)CCC3)C1=O
- AC50 [8]: 32.9 µM (active)
- IC50 [9]: 3.98 µM (active)
- IC50 (Genome polyprotein): > 49.8 µM (not active)
- IC50 (Estrogen receptor): < 1.56 µM (active)

Compound: CCOc1ccc(N2C(=O)C3Sc4nc(O)sc4C(/C=C/c4ccccc4)C3C2=O)cc1 (stereo not given)
- IC50 [10]: 300 nM (active)
- IC50 (NS3): 15.4 µM (not active)

Compound: O=[N+]([O-])c1ccc2c(c1)nc(S)n2-c1ccccc1
- IC50 [11]: 39.6 µM (active)
- IC50 [12]: 9.42 µM (active)
- EC50 [13]: 2.85 µM (active)
- EC50 [14]: > 150 µM (inactive)
